In patent US9669016B2, “Antiparasitic effect of Bis[3,5-Bis(Benzylidene)-4-Oxo-1-Piperidinyl]amide Derivatives” (priority 2014, dated 2017):
Read-outs that look alike come from different tables or passages of the source.

Assays:
[1] = biological target: lipoamide dehydrogenase (LipDH) also from T. cruzi (Trypanosoma cruzi, UniProt P90597); test: Lipoamide dehydrogenase inhibition; type: biochemical; settings: preliminary, unpublished data
[2] = biological target: trypanothione reductase (TR) from T. cruzi (Trypanosoma cruzi, UniProt P28593); test: Trypanothione reductase inhibition; type: biochemical; settings: preliminary, unpublished data
[3] = system: L. major metacyclic promastigotes; test: Murine model for cutaneous leishmaniasis (footpad infection); type: in vivo, BALB/c mice; settings: for footpad swelling: 10^5 L. major metacyclic promastigotes, intraperitoneal daily treatment
Experimental: (§1) The in vivo experiments were comprised of four groups of five mice each: (1) infected, but not treated [control for the infection—100 μL of DMSO per day, drug diluent]; (2) treated with NC884, NC901 or NC2459, but not infected with the parasites [control for drug toxicity]; (3) infected with the parasites and treated with amphotericin B (8 mg/kg/day) [reference drug; positive control]; and (4) infected with the parasites and treated with NC884, NC901 or NC2459 [experimental group]. Luciferase expressing metacyclic promastigotes L. major (Freidlin V1) were obtained as described previously. Suspensions of 1×10^5 or 1×10^6 parasites per 50 μl of sterile DMEM (endotoxin-free) were injected with a 30G needle into the left hind footpad of BALB/c mice. Two weeks post-infection the compounds were administered once a day by intraperitoneal route, daily for 14 to 17 days. Twice a week, weights were recorded to monitor toxicity and the thickness of the infected footpad and the non-infected footpad was measured with digital calipers to monitor the progression of the disease. The parasitic load also was evaluated through in vivo imaging using luminescence (Kodak Image Station). The mice were injected intra-peritoneally with 150 mg/kg D-luciferin (Sigma, USA) 10 min before imaging, anesthetized with 1-2% isofluorane in oxygen during imaging and the net intensity emitted from the footpad was quantified using the KODAK Image Station software. Parasite burden was expressed as net intensity emitted from L. major infected footpad lesions normalized against the background fluorescence of uninfected mice. The presence/absence of parasites was confirmed by PCR using L. major methionine aminopeptidase (MetAP1) 1 specific primers: 5′-[…]-3′ (SEQ ID NO:1) and 5′-[…]-3′ (SEQ ID NO:2) on cDNA reverse transcribed from total RNA extracted from footpad lysate obtained by macerating footpad tissue fragments in Trizol (Invitrogen Life Technologies, United States) with the gentleMACS™ Dissociator (Miltenyi Biotec GmbH, Germany) following the manufacturer's protocol.

[4] = Weight and toxicity monitoring in treated infected mice; type: in vivo, BALB/c mice; settings: for deaths as a result of compound toxicity / weight loss: 10^5 infection experiment; for weight loss: daily IP treatment
Experimental: as §1

Hs27 human fibroblasts = test: Viability assay (Alamar Blue) on Hs27 fibroblasts; type: cell-based; settings: read-out: Mammalian cells IC50 ± SD, Hs27 Fibroblasts
Experimental: Rhesus monkey kidney epithelial cell LLC-MK2 (American Type Culture Collection-ATCC, Manassas, Va. # CCL-7), Hs-27 human fibroblasts (American Type Culture Collection-ATCC, Manassas, Va.), RAW 264.7 murine macrophages (American Type Culture Collection-ATCC, Manassas, Va.) U2-09 human osteoblasts (American Type Culture Collection-ATCC, Manassas, Va. # HTB-99) (American Type Culture Collection-ATCC, Manassas, Va.) cells were cultured in Dulbecco's Modified Eagle's Medium (DMEM), supplemented with 10% inactivated FBS, along with 1% of 10,000 units/ml penicillin and 10 mg/ml streptomycin in 0.9% sodium chloride. Intraperitoneal BALB/c mice macrophages were obtained and cultured in DMEM high-glucose, +L-glu, supplemented with 10% FBS (inactivated). The procedure was performed minimizing the distress and pain for the animals following the NIH guidance and animal protocol approved by UTEP's Institutional Animal Care and Use Committee (IACUC).
Viability assay on mammalian cells and T. cruzi epimastigotes. The cytotoxicity and anti-trypanosomal activity of the NC compounds was tested in human Hs27 fibroblasts (ATCC CRL-1634), LLC-MK2 cells (ATCC CCL-7), RAW 264.7 murine macrophages (ATCC TIB71) (American Type Culture Collection-ATCC, Manassa, Va.), mice intraperitoneal macrophages and in epimastigote forms of T. cruzi Y strain using Alamar Blue assay (Invitrogen—Life Technology, Grand Island, N.Y.). The experiments were performed as described using a range of concentration of 500 μM to 1 nM.
The statistical significance (p-value) of the compound's cytotoxicity was calculated using the General Linear Mixed Model Analysis. This analysis was used to test the linear effect of the logarithm of dose on the logit transformation of the percent survival. The IC50 was obtained as the exponent of the negative ratio of the y-intercept and the slope of the fitted regression line (SAS Software, Version 9.2). […] All experiments had statistical significance determined at p≦0.05(*), p≦0.01(**), and p≦0.001(***).

[5] = system: Leishmania major promastigotes; test: Luciferase survival assay on L. major promastigotes; type: cell-based
Experimental: Evaluation of the NC library activity against Leishmania major. The NC library (136 compounds) was screened using firefly luciferase-expressing L. major promastigotes referred to as Lmj-FV1-LUC-TK (L. major strain Friedlin (MHOM/JL/80/Friedlin) clone V1) engineered to express luciferase following integration of the construct pIR1SAT-LUC(a)-TK(b) (strain B5113) in the rRNA locus (S. M. Hickerson and S. M. Beverley, unpublished data). Enones (stock solutions in DMSO) were diluted (1 nM to 500 μM, in a final 1% DMSO) and added (1 μl per well) to 96-well microplates using an Eppendorf epMotion 5070 automated pipetting system. Promastigotes (10^6/well) were added, and parasite survival was assessed by luciferase activity with the substrate 5′-fluoroluciferin (ONE-Glo Luciferase Assay System, Promega) after 96-h incubation at 28° C., using a luminometer (Luminoskan, Thermo). The bioluminescent intensity was a direct measure of the survival of parasites. This was determined by comparing bioluminescent intensity of L. major parasites live/dead with MTT assay and cell counting. The primary compound screens were performed as single wells.

[6] = 96 h, read-out: estimated EC50, L. major promastigotes
[7] = 96 h incubation, read-out: L. major Promastigotes EC50

Sequence of trypanothione reductase (TR) from T. cruzi (P28593 whole entry): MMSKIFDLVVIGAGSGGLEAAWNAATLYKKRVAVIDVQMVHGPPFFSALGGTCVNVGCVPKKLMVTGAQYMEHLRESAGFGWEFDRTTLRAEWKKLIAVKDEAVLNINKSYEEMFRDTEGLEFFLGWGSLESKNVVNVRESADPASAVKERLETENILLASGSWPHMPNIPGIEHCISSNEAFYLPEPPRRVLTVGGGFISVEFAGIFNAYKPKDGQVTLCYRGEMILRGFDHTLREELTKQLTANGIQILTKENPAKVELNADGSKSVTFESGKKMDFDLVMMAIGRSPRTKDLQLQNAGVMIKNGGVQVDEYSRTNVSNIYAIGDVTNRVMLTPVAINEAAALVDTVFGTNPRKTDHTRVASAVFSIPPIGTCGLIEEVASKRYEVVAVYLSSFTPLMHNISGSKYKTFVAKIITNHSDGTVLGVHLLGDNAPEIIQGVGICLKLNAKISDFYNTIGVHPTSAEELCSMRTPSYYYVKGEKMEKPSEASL
Sequence of lipoamide dehydrogenase (LipDH) also from T. cruzi (P90597 whole entry): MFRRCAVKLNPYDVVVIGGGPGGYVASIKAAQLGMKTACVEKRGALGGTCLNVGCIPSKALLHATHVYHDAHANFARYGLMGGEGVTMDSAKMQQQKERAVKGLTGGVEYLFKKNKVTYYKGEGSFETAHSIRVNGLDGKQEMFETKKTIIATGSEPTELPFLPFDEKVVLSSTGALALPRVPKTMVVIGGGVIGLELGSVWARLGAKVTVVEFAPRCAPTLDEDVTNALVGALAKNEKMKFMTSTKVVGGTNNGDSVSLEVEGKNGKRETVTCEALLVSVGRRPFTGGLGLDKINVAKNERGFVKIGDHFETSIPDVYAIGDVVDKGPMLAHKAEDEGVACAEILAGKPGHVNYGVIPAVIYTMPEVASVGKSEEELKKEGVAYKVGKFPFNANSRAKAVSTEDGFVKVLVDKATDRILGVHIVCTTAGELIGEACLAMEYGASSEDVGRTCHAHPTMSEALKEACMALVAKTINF

Which results are given for CN(C)CC1CCC(CN(C)C)C1=O (stereo not drawn) [NC884]?
inhibition of lipoamide dehydrogenase [1]: time-dependent irreversible inhibition; inhibition of trypanothione reductase [2]: time-dependent irreversible inhibition; footpad swelling [3]: reduced the footpad swelling similar to that of the positive control; deaths as a result of compound toxicity [4]: no mice died; weight loss [4]: no significant weight loss; IC50 (Hs27 human fibroblasts): 16300 ± 170 nM; EC50 [5, 6]: 1120 nM; EC50 [5, 7]: 1120 nM

With CN(C)CC1CCCC(CN(C)C)C1=O (stereo not drawn) [NC901] as the molecule, how does the “inhibition of lipoamide dehydrogenase” value [1] read?
Its value is “time-dependent irreversible inhibition”.

What about the “inhibition of trypanothione reductase” value [2] of the same molecule?
The value was “time-dependent irreversible inhibition”.

What about the footpad swelling [3] of the same molecule?
Its footpad swelling is “reduced the footpad swelling similar to that of the positive control”.

And the “deaths as a result of compound toxicity” value [4]?
Its value is “no mice died”.

And the weight loss [4]?
The weight loss was “no significant weight loss”.

What about the IC50 (Hs27 human fibroblasts) of the same molecule?
The IC50 was 16000 ± 120 nM.

And the EC50 [5, 6]?
The EC50 was 453 nM.

What about the EC50 [5, 7] of the same molecule?
The EC50 was 450 nM.

Which footpad swelling [3] does the source give for O=C1/C(=C/c2ccccc2)CN(C(=O)C(=O)N2C/C(=C\c3ccccc3)C(=O)/C(=C/c3ccccc3)C2)C/C1=C\c1ccccc1 [NC2459] here?
Its footpad swelling is “much lower amount of swelling than all groups”.

And the “time until measurable lesions start developing” value ([3]; 10^5 parasites)?
The value was 6-7 weeks post-infection.

And the “mice never developing a lesion” value ([3]; 10^5 parasites, monitored up to twelve weeks post-infection)?
Its value is “one out of the three mice never developed a lesion”.

What about the “lesion size at 33 days post-infection” value ([3]; 10^6 parasites, 8 mg/kg/day extended treatment, p≦0.05) of the same molecule?
The value was “significantly smaller lesion than all other groups”.

And the “PCR of L. major MetAP1 gene in footpad” value ([3]; mouse displaying no lesion)?
Its value is “no traces of L. major genomic DNA”.

What about the “deaths as a result of compound toxicity” value [4] of the same molecule?
Its value is “no mice died”.

And the weight loss [4]?
The weight loss was “no significant weight loss”.

What about the “additional weight loss or toxic side effects compared to the control group” value ([4]; 10^6 infection, 8 mg/kg/day extended treatment) of the same molecule?
The value was “did not result in any additional weight loss or toxic side effects”.

And the IC50 (Hs27 human fibroblasts)?
The IC50 was 10010 ± 90 nM.

And the EC50 [5, 7]?
The EC50 was 20 nM.

What about the EC50 ([5]; after a 96 hour treatment, read-out: estimated EC50, L. major promastigotes) of the same molecule?
The EC50 was 20 nM.
